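Cultured in 96-well plates, cells were exposed to test compound for 48 hours across five concentrations. GI50: concentration for 50% inhibition of growth.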 Calls of active or inactive are those of the source. Rule as the data show it: active = GI50 up to about 1.1 µM and inactive = higher.
Assays:
Experiment in all cases: growth of human tumour cells (NCI), 48 h
[1] = tested on: PC-3
[2] = tested on: SF-268
[3] = tested on: BT-549
[4] = tested on: NCI-H522
[5] = tested on: RXF 393
[6] = tested on: SNB-19
[7] = tested on: HOP-62
[8] = tested on: SK-OV-3
[9] = tested on: NCI-H226
[10] = tested on: DU-145
[11] = tested on: EKVX
[12] = tested on: SF-539
[13] = tested on: MDA-MB-435
[14] = tested on: KM12
[15] = tested on: HCT-15
[16] = tested on: Hs-578T
[17] = tested on: NCI-H460
[18] = tested on: LOX IMVI
[19] = tested on: Malme-3M
[20] = tested on: HL-60

Row | Compound | GI50 [1] | GI50 [2] | GI50 [3] | GI50 [4] | GI50 [5] | GI50 [6] | GI50 [7] | GI50 [8] | GI50 [9] | GI50 [10] | GI50 [11] | GI50 [12] | GI50 [13] | GI50 [14] | GI50 [15] [µM] | GI50 [16] | GI50 [17] | GI50 [18] | GI50 [19] | GI50 [20]
1 | O=[N+]([O-])c1cccc(/N=C2\c3ccccc3CN2c2cccc([N+](=O)[O-])c2)c1 | 72.8 µM (inactive) | 81.5 µM (inactive) | > 100 µM (inactive) | > 100 µM (inactive) | 31.9 µM (inactive) | > 100 µM (inactive) | > 100 µM (inactive) | > 100 µM (inactive) | > 100 µM (inactive) | > 100 µM (inactive) | > 100 µM (inactive) | 71 µM (inactive) | > 100 µM (inactive) | > 100 µM (inactive) | > 100 | 37.8 µM (inactive) | > 100 µM (inactive) | > 100 µM (inactive) | – | –
2 | O=C(O)CCc1ccc2c(c1)C(=O)CC2 | – | > 100 µM (inactive) | > 100 µM (inactive) | > 100 µM (inactive) | > 100 µM (inactive) | > 100 µM (inactive) | > 100 µM (inactive) | > 100 µM (inactive) | > 100 µM (inactive) | > 100 µM (inactive) | > 100 µM (inactive) | > 100 µM (inactive) | > 100 µM (inactive) | > 100 µM (inactive) | > 100 | – | > 100 µM (inactive) | > 100 µM (inactive) | > 100 µM (inactive) | > 100 µM (inactive)
3 | O=C(O)C(Cc1cc(I)c(O)c(I)c1)C1CCCCC1 (centres undefined) | 18.3 µM (inactive) | 36.2 µM (inactive) | 34.5 µM (inactive) | 29.3 µM (inactive) | 34.2 µM (inactive) | 35.6 µM (inactive) | 24.5 µM (inactive) | – | 61.5 µM (inactive) | 33 µM (inactive) | 31.9 µM (inactive) | – | 60.8 µM (inactive) | 30.4 µM (inactive) | 31.7 | 27.9 µM (inactive) | 18.1 µM (inactive) | 34 µM (inactive) | 37.7 µM (inactive) | –
4 | c1csc(-c2ccc(-c3cccc4nsnc34)s2)c1 | > 100 µM (inactive) | > 100 µM (inactive) | > 100 µM (inactive) | 71.6 µM (inactive) | 94.4 µM (inactive) | > 100 µM (inactive) | 27.4 µM (inactive) | > 100 µM (inactive) | > 100 µM (inactive) | > 100 µM (inactive) | > 100 µM (inactive) | > 100 µM (inactive) | > 100 µM (inactive) | > 100 µM (inactive) | > 100 | – | > 100 µM (inactive) | > 100 µM (inactive) | > 100 µM (inactive) | –
5 | COC(=O)c1ccc(C(=O)NC(Cc2ccc(Oc3cc(CC(NC(=O)c4ccccc4C(=O)OC)C(=O)OC)ccc3OC)cc2)C(=O)OC)cc1 (centres undefined) | > 100 µM (inactive) | > 100 µM (inactive) | 74.8 µM (inactive) | – | – | 31.6 µM (inactive) | 36.3 µM (inactive) | 67 µM (inactive) | > 100 µM (inactive) | > 100 µM (inactive) | > 100 µM (inactive) | 63.5 µM (inactive) | > 100 µM (inactive) | > 100 µM (inactive) | > 100 | 4.21 µM (inactive) | > 100 µM (inactive) | > 100 µM (inactive) | > 100 µM (inactive) | > 100 µM (inactive)
6 | O=c1[nH]nc(Cc2ccccc2)n1/N=C/c1ccco1 | > 100 µM (inactive) | > 100 µM (inactive) | > 100 µM (inactive) | – | 24 µM (inactive) | > 100 µM (inactive) | > 100 µM (inactive) | > 100 µM (inactive) | > 100 µM (inactive) | > 100 µM (inactive) | > 100 µM (inactive) | > 100 µM (inactive) | > 100 µM (inactive) | 77.1 µM (inactive) | > 100 | 10 µM (inactive) | > 100 µM (inactive) | > 100 µM (inactive) | > 100 µM (inactive) | –
7 | Cc1ncc(COP(=O)(O)O)c(/C=C2\SC(=S)NC2=O)c1O | > 100 µM (inactive) | > 100 µM (inactive) | > 100 µM (inactive) | > 100 µM (inactive) | > 100 µM (inactive) | > 100 µM (inactive) | > 100 µM (inactive) | > 100 µM (inactive) | > 100 µM (inactive) | > 100 µM (inactive) | > 100 µM (inactive) | > 100 µM (inactive) | > 100 µM (inactive) | > 100 µM (inactive) | > 100 | – | > 100 µM (inactive) | > 100 µM (inactive) | > 100 µM (inactive) | –
8 | CCOC(=O)Cn1c(=O)c2nc(SC)sc2n(-c2ccccc2)c1=O | > 100 µM (inactive) | – | > 100 µM (inactive) | – | > 100 µM (inactive) | > 100 µM (inactive) | > 100 µM (inactive) | – | > 100 µM (inactive) | – | > 100 µM (inactive) | – | – | > 100 µM (inactive) | > 100 | > 100 µM (inactive) | > 100 µM (inactive) | – | > 100 µM (inactive) | > 100 µM (inactive)
9 | C=C1[C@H]2O[C@H]2[C@@H](OC(C)=O)[C@@]2(C)[C@@H](OC(C)=O)C[C@@H](OC(=O)CCC)[C@@](C)(O)[C@@H]2[C@@H](OC(C)=O)[C@]2(O)[C@@H](C)C(=O)O[C@H]2[C@H]1Cl | > 100 µM (inactive) | > 100 µM (inactive) | > 100 µM (inactive) | > 100 µM (inactive) | 38.7 µM (inactive) | > 100 µM (inactive) | > 100 µM (inactive) | – | 0.159 µM (active) | > 100 µM (inactive) | > 100 µM (inactive) | > 100 µM (inactive) | > 100 µM (inactive) | > 100 µM (inactive) | > 100 | – | > 100 µM (inactive) | – | > 100 µM (inactive) | > 100 µM (inactive)
10 | OCCCCn1cc(Cn2ncc3c(NCc4ccccc4)ncnc32)nn1 | > 100 µM (inactive) | > 100 µM (inactive) | > 100 µM (inactive) | > 100 µM (inactive) | > 100 µM (inactive) | > 100 µM (inactive) | > 100 µM (inactive) | > 100 µM (inactive) | > 100 µM (inactive) | > 100 µM (inactive) | > 100 µM (inactive) | > 100 µM (inactive) | 33.7 µM (inactive) | > 100 µM (inactive) | > 100 | > 100 µM (inactive) | > 100 µM (inactive) | > 100 µM (inactive) | > 100 µM (inactive) | –
11 | CN(C)c1ccc(/C=N/CC2CCCN3CCCCC23)cc1 (centres undefined) | > 100 µM (inactive) | > 100 µM (inactive) | > 100 µM (inactive) | > 100 µM (inactive) | 47.3 µM (inactive) | > 100 µM (inactive) | > 100 µM (inactive) | > 100 µM (inactive) | > 100 µM (inactive) | > 100 µM (inactive) | > 100 µM (inactive) | – | – | > 100 µM (inactive) | > 100 | 24.8 µM (inactive) | > 100 µM (inactive) | > 100 µM (inactive) | > 100 µM (inactive) | –
12 | FC(F)(F)c1cnc(N/N=C(/c2ccccc2)c2ccccn2)c(Cl)c1 | 5.3 µM (inactive) | 4.85 µM (inactive) | 11.1 µM (inactive) | 1.9 µM (inactive) | 12.3 µM (inactive) | 9.33 µM (inactive) | 7.4 µM (inactive) | 4.76 µM (inactive) | 13.2 µM (inactive) | 6.64 µM (inactive) | 3.43 µM (inactive) | 4.6 µM (inactive) | 6.87 µM (inactive) | 5.14 µM (inactive) | 1.98 | 9.14 µM (inactive) | 3.27 µM (inactive) | – | – | –
13 | C#CCn1ncc2c(SC)ncnc21 | > 100 µM (inactive) | > 100 µM (inactive) | > 100 µM (inactive) | > 100 µM (inactive) | > 100 µM (inactive) | > 100 µM (inactive) | > 100 µM (inactive) | > 100 µM (inactive) | > 100 µM (inactive) | > 100 µM (inactive) | 66.4 µM (inactive) | > 100 µM (inactive) | > 100 µM (inactive) | > 100 µM (inactive) | > 100 | > 100 µM (inactive) | > 100 µM (inactive) | > 100 µM (inactive) | > 100 µM (inactive) | –
14 | CCOC(=O)c1nc2ccccc2nc1Oc1ccc(F)cc1 | > 100 µM (inactive) | 55.8 µM (inactive) | > 100 µM (inactive) | – | 46.8 µM (inactive) | > 100 µM (inactive) | > 100 µM (inactive) | > 100 µM (inactive) | > 100 µM (inactive) | > 100 µM (inactive) | > 100 µM (inactive) | > 100 µM (inactive) | > 100 µM (inactive) | > 100 µM (inactive) | > 100 | 39.3 µM (inactive) | > 100 µM (inactive) | > 100 µM (inactive) | – | –
15 | COC(=O)CCC(=O)NC1c2cccc3cccc(c23)Cn2c(=O)n(C)c(=O)n21 (centres undefined) | > 100 µM (inactive) | > 100 µM (inactive) | > 100 µM (inactive) | > 100 µM (inactive) | > 100 µM (inactive) | > 100 µM (inactive) | > 100 µM (inactive) | > 100 µM (inactive) | – | > 100 µM (inactive) | > 100 µM (inactive) | > 100 µM (inactive) | > 100 µM (inactive) | > 100 µM (inactive) | > 100 | > 100 µM (inactive) | > 100 µM (inactive) | > 100 µM (inactive) | > 100 µM (inactive) | –
16 | CN(/N=C/C=N/N(C)C1=NCCCCN1)C1=NCCCCN1 | > 100 µM (inactive) | > 100 µM (inactive) | > 100 µM (inactive) | > 100 µM (inactive) | > 100 µM (inactive) | > 100 µM (inactive) | > 100 µM (inactive) | > 100 µM (inactive) | > 100 µM (inactive) | – | > 100 µM (inactive) | > 100 µM (inactive) | > 100 µM (inactive) | – | > 100 | > 100 µM (inactive) | > 100 µM (inactive) | > 100 µM (inactive) | > 100 µM (inactive) | –

Reference: ChEMBL document CHEMBL1201862, “PubChem BioAssay data set” (2004)
